From patent US20090318493A1 (Roche Palo Alto LLC, priority 2008, published 2009)
Read-outs that look alike come from different tables or passages of the source.

Tests used:
Assay type in all cases: binding
[1] = biological target: T1, hDAT (Homo sapiens, UniProt Q01959); assay: Human dopamine transporter scintillation proximity assay, competition with [3H]-Vanoxerine
T1 construct: expressed in transfected cells; plated whole cells
Procedure: This assay was used to determine the affinity of ligands for the dopamine transporter by competition with [^3H]-Vanoxerine.
Cells were plated four hours prior to experiment by placing approximately 30,000 cells per well (in PBS) on white, opaque Cell-Tak coated 96 well plates. Extra buffer was apriated from the cell plates using an ELx405 plate washer.
Compounds of the invention were diluted from 10 mM to 0.1 nM FAC (10 point curves, whole log/half log dilutions) via a Beckman Biomek 2000 using a 10-point dilution protocol. The mixtures were allowed to stand at room temperature for 30 minutes, and were then counted on a Packard TopCount LCS, a generic SPA counting protocol settings, Count Time (min.): 0.40, Background Subtract: none, Half-Life Correction: none, Quench Indicator: tSIS, Platemap blank subtraction: none, Cross talk reduction: Off).
The % inhibition was calculated for each compound tested [(Compound CPM at maximum concentration-Non-Specific CPM)/Total CPM*100].
(§1) where max=total binding, min=non specific binding, x=concentration (M) of the tested compound and n=Hill slope. The inhibition dissociation constant (Ki) of each compound was determined according to the method of Cheng-Prusoff and then converted into negative logarithm (pKi) of the Ki.

[2] = biological target: T2, hNET transporter (Homo sapiens, UniProt P23975); assay: Human norepinephrine transporter (hNET) scintillation proximity assay, competition with [3H]-Nisoxetine
T2 construct: expressed in transfected cells; membranes prepared
Procedure: This assay was used to determine the affinity of ligands for the hNET transporter by competition with [^3H]-Nisoxetine. As in the hSERT assay of the above example, receptor-containing membranes were pre-coupled to the SPA beads and the binding of the appropriate radioligand to the transporter was measured. The light emission was proportional to the amount of bound radioligand, with unbound radioligand producing no signal.
HEK-293 cells (Tatsumi et al., Eur. J. Pharmacol. 1997, 30, 249-258) stably expressing recombinant hNET (Clone: HEK-hNET #2) were maintained with media (DMEM hi glucose with 10% FBS, 300 μg/ml G418 and 2 mM L-Glutamine) and incubated at 37° C. with 5% CO2. Cells were released from culture flasks using PBS for 1-2 minutes. The cells were subsequently centrifuged at 1000 g's for 5 minutes and resuspended in PBS prior to being used in the membrane preparation.
(§2) Cell membranes were prepared using a membrane preparation buffer of 50 mM TRIS (pH 7.4). Cell membranes were prepared from a single cube (7.5×10^9cells total). Cells were homogenized using a Polytron (setting medium for a 4 second burst). The homogenate was then centrifuged at 48,000×g for 15 minutes, the supernatant subsequently removed and discarded, and the pellet resuspended with fresh buffer. After a second centrifugation, the pellet was re-homogenized and brought to a final volume determined during the assay. Typically, membrane portions were aliquoted in 3-6 mg/mil (w:v). and stored at −80° C.
^3[H] […] Compounds of the invention were diluted from 10 mM to 0.1 nM FAC (10 point curves, whole log /half log dilutions) via a Beckman Biomek 2000 using a serial dilution protocol. The test compounds were then transferred (20 μl/well) and the radioligand was added at 50 μl/well. Membrane and beads were prepared to a ratio of 10 μg: 0.7 mg, with 0.7 mg PVT-WGA Amersham beads (Cat# RPQ0282V) added per well. 130 μl of the membrane: bead mixture was added to the assay plate. The mixtures were allowed to stand at room temperature for one hour, and were then counted on a Packard TopCount LCS, a generic SPA counting protocol settings (Energy Range: Low, Efficiency Mode: Normal, Region A: 1.50-35.00, Region B: 1.50-256.00, Count Time (min.): 0.40, Background Subtract: none, Half-Life Correction: no, Quench Indicator: tSIS, Platemap blank subtraction: No, Cross talk reduction: Off).
The % inhibition was calculated for each compound tested [(Compound CPM at maximum concentration-Non-Specific CPM)/Total CPM*100]. The concentration producing 50% inhibition (IC50) was determined using an iterative non-linear curve fitting technique with Activity Base/Xlfit using the following equation:
as §1

[3] = biological target: T3, hSERT transporter (Homo sapiens, UniProt P31645); assay: Human serotonin transporter (hSERT) scintillation proximity assay, competition with [3H]-Citalopram
T3 construct: expressed in transfected cells; membranes prepared
Description: Screening for Human Serotonin Transporter (hSERT) Antagonists Using a Scintillation Proximity Assay (SPA)
The screening assay of this example was used to determine the affinity of ligands at the hSERT transporter by competition with [^3H]-Citalopram.
Scintillation Proximity Assay (SPA) works by bringing radioligand within close proximity to the bead's scintillant to stimulate light emission. In this assay, the receptor-containing membranes were pre-coupled to the SPA beads and the binding of the appropriate radioligand to the transporter was measured. The light emission was proportional to the amount of bound radioligand. Unbound radioligand produced no signal as a result of distant proximity to scintillant (lack of energy transfer).
Cells are released from culture flasks using PBS for 1-2 minutes. The cells were subsequently centrifuged at 1000 g's for 5 minutes and resuspended in PBS prior to being used in the membrane preparation.
as §2, with “(7.5×10^9 cells” for “(7.5×10^9cells”, “3 mg/ml” for “3-6 mg/mil”
Compounds of the invention were diluted from 10 mM to 0.1 nM FAC (10 point curves, whole log/half log dilutions) via a Beckman Biomek 2000 using a serial dilution protocol. The test compounds were then transferred (20 μl/well) and the [^3H]-Citalopram radioligand was added at 50 μl/well. Membrane and beads were prepared to a ratio of 10 μg: 0.7 mg, with 0.7 mg PVT-WGA Amersham beads (Cat# RPQ0282V) added per well. 130 μl of the membrane: bead mixture was added to the assay plate.
The % inhibition was calculated for each compound tested [(Compound counts per minute (CPM) at maximum concentration-Non-Specific CPM)/Total CPM*100].
as §1

[4] = Table 1, read-out: pIC50 NET (converted)
[5] = Table 1, read-out: pIC50 DAT (converted)
[6] = Table 1, read-out: pIC50 SERT (converted)

T3 sequence (P31645 whole entry): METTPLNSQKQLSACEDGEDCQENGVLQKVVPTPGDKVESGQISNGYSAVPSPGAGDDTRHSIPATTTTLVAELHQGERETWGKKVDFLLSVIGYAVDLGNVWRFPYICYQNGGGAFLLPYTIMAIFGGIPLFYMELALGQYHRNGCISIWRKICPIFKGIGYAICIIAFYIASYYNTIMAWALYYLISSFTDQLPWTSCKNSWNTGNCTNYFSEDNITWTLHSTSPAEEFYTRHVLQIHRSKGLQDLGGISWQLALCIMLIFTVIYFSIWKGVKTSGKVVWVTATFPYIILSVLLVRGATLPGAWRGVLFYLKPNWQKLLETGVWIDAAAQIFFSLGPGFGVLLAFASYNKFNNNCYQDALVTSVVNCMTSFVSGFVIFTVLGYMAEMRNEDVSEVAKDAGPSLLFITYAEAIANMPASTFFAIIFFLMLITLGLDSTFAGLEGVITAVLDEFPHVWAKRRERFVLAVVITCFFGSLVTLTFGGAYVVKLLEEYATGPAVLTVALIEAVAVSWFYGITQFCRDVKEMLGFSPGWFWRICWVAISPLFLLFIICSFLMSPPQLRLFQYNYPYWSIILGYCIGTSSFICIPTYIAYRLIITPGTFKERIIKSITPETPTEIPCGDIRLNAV
T1 sequence (Q01959 whole entry): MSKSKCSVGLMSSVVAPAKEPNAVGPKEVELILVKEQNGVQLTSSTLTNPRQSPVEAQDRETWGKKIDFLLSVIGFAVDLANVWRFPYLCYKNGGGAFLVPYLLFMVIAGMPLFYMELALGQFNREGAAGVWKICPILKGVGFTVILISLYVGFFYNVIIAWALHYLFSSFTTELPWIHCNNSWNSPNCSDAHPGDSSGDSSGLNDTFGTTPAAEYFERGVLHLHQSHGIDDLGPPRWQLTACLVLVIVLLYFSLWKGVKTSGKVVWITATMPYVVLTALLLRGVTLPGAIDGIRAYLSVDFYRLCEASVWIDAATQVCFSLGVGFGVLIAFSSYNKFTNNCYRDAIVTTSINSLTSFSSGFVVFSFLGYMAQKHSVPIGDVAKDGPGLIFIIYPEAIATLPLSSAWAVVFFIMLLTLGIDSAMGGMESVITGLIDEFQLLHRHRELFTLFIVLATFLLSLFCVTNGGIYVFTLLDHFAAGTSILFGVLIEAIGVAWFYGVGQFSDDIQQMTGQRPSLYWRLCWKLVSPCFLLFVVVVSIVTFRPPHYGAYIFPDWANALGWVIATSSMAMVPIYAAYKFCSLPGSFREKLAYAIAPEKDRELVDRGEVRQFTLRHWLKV
T2 sequence (P23975 whole entry): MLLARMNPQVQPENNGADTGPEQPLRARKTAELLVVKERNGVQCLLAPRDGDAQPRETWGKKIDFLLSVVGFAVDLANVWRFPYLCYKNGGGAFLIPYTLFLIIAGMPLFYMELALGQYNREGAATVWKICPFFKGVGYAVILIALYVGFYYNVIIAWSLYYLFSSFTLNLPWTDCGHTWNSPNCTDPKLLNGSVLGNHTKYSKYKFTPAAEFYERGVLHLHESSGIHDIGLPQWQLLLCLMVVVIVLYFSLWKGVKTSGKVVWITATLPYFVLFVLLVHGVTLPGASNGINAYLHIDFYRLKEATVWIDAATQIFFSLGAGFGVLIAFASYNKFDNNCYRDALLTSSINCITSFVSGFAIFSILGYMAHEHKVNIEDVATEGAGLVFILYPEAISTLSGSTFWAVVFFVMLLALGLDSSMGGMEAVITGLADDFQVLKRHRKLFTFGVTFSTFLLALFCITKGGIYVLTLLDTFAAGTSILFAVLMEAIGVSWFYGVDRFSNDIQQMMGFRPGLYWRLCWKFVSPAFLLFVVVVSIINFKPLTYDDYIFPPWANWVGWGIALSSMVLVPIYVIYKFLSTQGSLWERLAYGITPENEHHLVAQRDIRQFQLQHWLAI

SMILES: O=C(c1ccc(Cl)c(Cl)c1)C1(CC2CCCO2)CCNCC1 (stereo not drawn) [Compound 42, (3,4-Dichloro-phenyl)-[4-(tetrahydro-furan-2-ylmethyl)-piperidin-4-yl]-methanone]
- IC50 [1]: 3.63 nM
- IC50 [2, 4]: 47.9 nM
- IC50 [3]: 1 nM

SMILES: O=C(c1ccccc1)C1(Cc2ccc(Cl)c(Cl)c2)CCNCC1 [Compound 43, [4-(3,4-Dichloro-benzyl)-piperidin-4-yl]-phenyl-methanone]
- IC50 [1, 5]: 575 nM
- IC50 [2, 4]: 1510 nM
- IC50 [3]: 75.9 nM

SMILES: CNc1ccc(C(=O)C2(CC(C)C)CCNCC2)cc1Cl [Compound 44, (3-Chloro-4-methylamino-phenyl)-(4-isobutyl-piperidin-4-yl)-methanone]
- IC50 [1]: 57.5 nM
- IC50 [2, 4]: 51.3 nM
- IC50 [3]: 0.724 nM

SMILES: CC(C)CC1(C(=O)c2ccc(Cl)c(Oc3ccccc3)c2)CCNCC1 [Compound 45, (4-Chloro-3-phenoxy-phenyl)-(4-isobutyl-piperidin-4-yl)-methanone]
- IC50 [1, 5]: 34.7 nM
- IC50 [2, 4]: 2.57 nM
- IC50 [3, 6]: 2.4 nM

SMILES: CCCC1(C(=O)c2ccc(Cl)c(Oc3ccccc3)c2)CCNCC1 [Compound 46, (4-Chloro-3-phenoxy-phenyl)-(4-propyl-piperidin-4-yl)-methanone]
- IC50 [1, 5]: 30.2 nM
- IC50 [2, 4]: 11.5 nM
- IC50 [3, 6]: 7.08 nM

SMILES: CC(C)C[C@@]1(C(=O)c2ccc(Cl)c(Cl)c2)CC[C@@H]2CC[C@H]1N2 [Compound 47, (3,4-Dichloro-phenyl)-((1R,2S,5R)-2-isobutyl-8-aza-bicyclo[3.2.1]oct-2-yl)-methanone]
- IC50 [1]: 24 nM
- IC50 [2, 4]: 200 nM
- IC50 [3]: 7.94 nM

SMILES: CC[C@@]1(C(=O)c2ccc(Cl)c(Cl)c2)CC[C@@H]2CC[C@H]1N2 [Compound 48, (3,4-Dichloro-phenyl)-((1R,2R,5R)-2-ethyl-8-aza-bicyclo[3.2.1]oct-2-yl)-methanone]
- IC50 [1]: 209 nM
- IC50 [2, 4]: 1150 nM
- IC50 [3]: 7.76 nM

SMILES: CC[C@]1(C(=O)c2ccc(Cl)c(Cl)c2)CC[C@@H]2CC[C@H]1N2 [Compound 49, (3,4-Dichloro-phenyl)-((1R,2S,5R)-2-ethyl-8-aza-bicyclo[3.2.1]oct-2-yl)-methanone]
- IC50 [1]: 1580 nM
- IC50 [2, 4]: 5130 nM
- IC50 [3]: 631 nM

SMILES: CCCC1(C(=O)c2ccc(Cl)c(-c3ccn[nH]3)c2)CCCNC1 (stereo not drawn) [Compound 50, [4-Chloro-3-(2H-pyrazol-3-yl)-phenyl]-(3-propyl-piperidin-3-yl)-methanone]
- IC50 [1, 5]: 4270 nM
- IC50 [2]: 30.9 nM
- IC50 [3]: 7.76 nM

SMILES: CCCC1(C(=O)c2ccc(Cl)c(N(C)c3ccccc3)c2)CCNCC1 [Compound 51, [4-Chloro-3-(methyl-phenyl-amino)-phenyl]-(4-propyl-piperidin-4-yl)-methanone]
- IC50 [1, 5]: 195 nM
- IC50 [2, 4]: 162 nM
- IC50 [3, 6]: 18.6 nM

SMILES: CC(C)(C)CCC1(C(=O)c2ccc(Cl)c(Cl)c2)CCCNC1 (stereo not drawn) [Compound 56, (3,4-Dichloro-phenyl)-[3-(3,3-dimethyl-butyl)-piperidin-3-yl]-methanone]
- IC50 [1]: 15.1 nM
- IC50 [2, 4]: 32.4 nM
- IC50 [3]: 17.4 nM

SMILES: CC(C)(C)CC[C@]1(C(=O)c2ccc(Cl)c(Cl)c2)CCCNC1 [Compound 59, (3,4-Dichloro-phenyl)-[(S)-3-(3,3-dimethyl-butyl)-piperidin-3-yl]-methanone]
- IC50 [1, 5]: 324 nM
- IC50 [2]: 10.5 nM
- IC50 [3]: 14.5 nM
